The results in this text go back to ChEMBL document CHEMBL1133765, “QSAR model for drug human oral bioavailability” (J Med Chem, 2000).

Data set [1] in a line: clinical. To be noted: human, in vivo, po.
Data set [2] in a line: physchem. The following applies: octanol/water, pH 6.5.
Data set [3] in a line: physchem.
The conditions of data set [4]: octanol/water.
Data set [5] in a line: clinical. To be noted: human, in vivo, po. This is another data set of the same source.

`CCCC(=O)Nc1ccc(OCC(O)CNC(C)C)c(C(C)=O)c1` (stereo unspecified) [ACEBUTOLOL]: the bioavailability in data set [1] was determined as 49%.

As to `CC[C@H]1[C@@H]2C[C@H]3[C@@H]4N(C)c5ccccc5[C@]45C[C@@H]([C@@H]2[C@H]5O)N3[C@@H]1O` [AJMALINE], in data set [1], the bioavailability stood at 49%. In addition, the logD in data set [2] worked out at 2.42. The molecule further came in with a pKa in data set [3] of 6.5. In data set [4], the “delta logD” value is -0.25.

In data set [1], `CC(C)(C)NCC(O)c1ccc(O)c(CO)c1` (stereo unspecified) [ALBUTEROL] returned a bioavailability of 49%. The molecule further displayed a logD in data set [2] of -2.69. Also, the “delta logD” value in data set [4] is -0.9.

As for `COc1ccccc1OCCNCC(O)COc1cccc2[nH]c3ccccc3c12` (stereo unspecified) [CARVEDILOL], in data set [1], the bioavailability was 49%. The molecule further showed a logD in data set [2] of 1.31. The pKa in data set [3] was found to be 9.3. Also, the “delta logD” value in data set [4] is -0.9.

In turn, `NS(=O)(=O)c1cc2c(cc1Cl)N=CNS2(=O)=O` [CHLOROTHIAZIDE] came in with a bioavailability in data set [1] of 49%. The same molecule came in with a logD in data set [2] of -0.45. Besides, the pKa in data set [3] came out at 6.7. Also, in data set [4], the “delta logD” value worked out at 0.57.

Consider `COc1cc(N)c(Cl)cc1C(=O)NC1CCN(CCCOc2ccc(F)cc2)CC1OC` (stereo unspecified) [CISAPRIDE], for which the bioavailability in data set [1] was 49%. This molecule showed a logD in data set [2] of 1.79. This molecule also displayed a pKa in data set [3] of 7.7. In data set [4], the “delta logD” value is reported as -0.75.

On to `CN1CCC[C@@H]1CCO[C@](C)(c1ccccc1)c1ccc(Cl)cc1` [CLEMASTINE], for which the bioavailability in data set [1] is 49%. Besides, the logD in data set [2] was 1.65. Moreover, the pKa in data set [3] is 9.2. The “delta logD” value in data set [4] was -0.89.

In data set [1], `COc1ccc([C@@H]2Sc3ccccc3N(CCN(C)C)C(=O)[C@@H]2OC(C)=O)cc1` [DILTIAZEM] returned a bioavailability of 49%. In data set [2], the logD is 1.47. In addition, in data set [4], the “delta logD” value is on record as -0.75.

In data set [1], `CCC(C)(C)NCC(O)COc1ccccc1C(=O)CCc1ccccc1` (stereo unspecified) [DIPRAFENONE] returned a bioavailability of 49%. The molecule also registered a logD in data set [2] of 0.59. In addition, the pKa in data set [3] is 9.2. Besides, the “delta logD” value in data set [4] is given as -0.89.

The molecule `COc1cc2nc(N3CCN(C(=O)C4COc5ccccc5O4)CC3)nc(N)c2cc1OC` (stereo unspecified) [DOXAZOSIN] showed a bioavailability in data set [5] of 79%. Further, the logD in data set [2] was 1.14. Moreover, the pKa in data set [3] turned out to be 6.5. In addition, the “delta logD” value in data set [4] was -0.25.

`CN(C)CCC=C1c2ccccc2COc2ccccc21` [DOXEPIN] came in with a bioavailability in data set [1] of 49%. This molecule gave a logD in data set [2] of 1.55. Besides, the pKa in data set [3] turned out to be 8. Also, the “delta logD” value in data set [4] is -0.82.

On to `COc1ccc(C(=O)Nc2ccccc2CCC2CCCCN2C)cc1` (stereo unspecified) [ENCAINIDE], for which the bioavailability in data set [1] came out at 49%. This molecule also returned a logD in data set [2] of -0.34. Moreover, the pKa in data set [3] came out at 10.2. Moreover, the “delta logD” value in data set [4] is -0.9.

In data set [1], `NC(N)=Nc1nc(CSCCC(N)=NS(N)(=O)=O)cs1` [FAMOTIDINE] came in with a bioavailability of 49%. In data set [2], this molecule yielded a logD of -1.27. Moreover, in data set [3], the pKa stood at 7.1. Moreover, the “delta logD” value in data set [4] is -0.52.

The molecule `CN(C)CCCN1c2ccccc2CCc2ccccc21` [IMIPRAMINE] came in with a bioavailability in data set [1] of 49%.

As for `COc1ccc2c(c1)N(C[C@H](C)CN(C)C)c1ccccc1S2` [LEVOMEPROMAZINE], in data set [5], the bioavailability stood at 79%. In data set [2], this molecule gave a logD of 1.98. Moreover, the pKa in data set [3] turned out to be 9.2. Also, the “delta logD” value in data set [4] is -0.89.

`COCC(=O)O[C@]1(CCN(C)CCCc2nc3ccccc3[nH]2)CCc2cc(F)ccc2[C@@H]1C(C)C` [MIBEFRADIL] came in with a bioavailability in data set [5] of 79%. The molecule further had a logD in data set [2] of 1.25. Moreover, in data set [3], the pKa was determined as 9.3. The “delta logD” value in data set [4] was -0.9.

The molecule `O=C(NCCN1CCOCC1)c1ccc(Cl)cc1` [MOCLOBEMIDE] showed a bioavailability in data set [5] of 79%. This molecule came in with a logD in data set [2] of 1.26. Besides, the pKa in data set [3] came to 6.2. Moreover, the “delta logD” value in data set [4] is reported as -0.15.

In turn, `CCOc1ccc2ccccc2c1C(=O)N[C@@H]1C(=O)N2[C@@H]1SC(C)(C)[C@@H]2C(=O)O` [NAFCILLIN] yielded a bioavailability in data set [1] of 49%. In data set [2], this molecule came in with a logD of -0.84. Moreover, the “delta logD” value in data set [4] was 0.9.

Molecule `CN1CCC[C@H]1c1cccnc1` [NICOTINE] yielded a bioavailability in data set [1] of 49%. The logD in data set [2] was -0.34. For the same molecule, the “delta logD” value in data set [4] is -0.82.

`Cc1cc2c(s1)Nc1ccccc1N=C2N1CCN(C)CC1` [OLANZAPINE] returned a bioavailability in data set [5] of 79%. Besides, the logD in data set [2] is -0.02. This molecule had a pKa in data set [3] of 8. In data set [4], the “delta logD” value was -0.81.

In data set [5], `COc1ccc2[nH]c([S+]([O-])Cc3ncc(C)c(OC)c3C)nc2c1` (stereo unspecified) [OMEPRAZOLE] displayed a bioavailability of 79%. In data set [2], this molecule registered a logD of 2.21. For the same molecule, the pKa in data set [3] was 5.2. Further, the “delta logD” value in data set [4] is given as -0.02.

`Cc1onc(-c2ccccc2)c1C(=O)N[C@@H]1C(=O)N2[C@@H]1SC(C)(C)[C@@H]2C(=O)O` [OXACILLIN]: the bioavailability in data set [1] is 49%. In data set [2], this molecule came in with a logD of -1.32. Further, the “delta logD” value in data set [4] is given as 0.9.

Regarding `Fc1ccc([C@@H]2CCNC[C@H]2COc2ccc3c(c2)OCO3)cc1` [PAROXETINE], the bioavailability in data set [5] is 79%. This molecule also returned a logD in data set [2] of -1.96. In data set [3], this molecule displayed a pKa of 11.2. The “delta logD” value in data set [4] is on record as -0.9.

Turning to `CC(CN1c2ccccc2Sc2ccccc21)N(C)C` (stereo unspecified) [PROMETHAZINE], the bioavailability in data set [1] turned out to be 49%. Moreover, the logD in data set [2] was determined as 2.21. Also, in data set [4], the “delta logD” value was -0.89.

Regarding `CCC(=O)O[C@](Cc1ccccc1)(c1ccccc1)[C@H](C)CN(C)C` [PROPOXYPHENE], the bioavailability in data set [1] amounted to 49%. Further, the logD in data set [2] came out at 2.2. In addition, in data set [4], the “delta logD” value is -0.89.

`CC(C)NCC(O)COc1cccc2ccccc12` (stereo unspecified) [PROPRANOLOL]: the bioavailability in data set [1] was 49%. For the same molecule, the “delta logD” value in data set [4] is given as -0.9.

Take `CC(NCCc1ccc(O)cc1)C(O)c1ccc(O)cc1` (stereo unspecified) [RITODRINE]: in data set [1], the bioavailability came out at 49%. This molecule yielded a logD in data set [2] of -1. Further, the “delta logD” value in data set [4] is recorded as -0.89.

`CSc1ccc2c(c1)N(CCC1CCCCN1C)c1ccccc1S2` (stereo unspecified) [THIORIDAZINE] registered a bioavailability in data set [1] of 49%. For the same molecule, in data set [2], the logD was determined as 2.9. Also, the “delta logD” value in data set [4] was -0.9.

In data set [5], `CC(C)(C)NC[C@H](O)COc1nsnc1N1CCOCC1` [TIMOLOL] gave a bioavailability of 79%. The same molecule returned a logD in data set [2] of -0.99. The same molecule displayed a pKa in data set [3] of 9.3. For the same molecule, the “delta logD” value in data set [4] was -0.9.

`COc1cccc(C2(O)CCCCC2CN(C)C)c1` (stereo unspecified) [TRAMADOL] displayed a bioavailability in data set [5] of 79%. Besides, the logD in data set [2] stood at 0.85. In data set [3], this molecule gave a pKa of 9.4. Besides, in data set [4], the “delta logD” value is on record as -0.9.

`C[C@H](CS)C(=O)N1C[C@@H](Sc2ccccc2)C[C@H]1C(=O)O` [ZOFENOPRILAT] yielded a bioavailability in data set [5] of 79%. Further, in data set [2], the logD is -0.64. In addition, in data set [3], the pKa amounted to 3.7. In addition, the “delta logD” value in data set [4] was 0.9.

Molecule `OCCN1CCN(CC/C=C2/c3ccccc3Sc3ccc(Cl)cc32)CC1` [ZUCLOPENTHIXOL] came in with a bioavailability in data set [5] of 79%. This molecule also returned a logD in data set [2] of 2.71. The same molecule returned a pKa in data set [3] of 8.1. Further, the “delta logD” value in data set [4] was -0.83.
